Measured values reported in patent US10106523B2, “Amide compound” (ASTELLAS PHARMA INC., priority 2014, dated 2018).

Biological target: rat EP4 receptor (Rattus norvegicus, UniProt P43114)
Experiment: Evaluation test of rat EP4 receptor affinity ([3H]PGE2 binding, membrane fraction of HEK-293 cells)
Set-up: expressed in transfected cells; host or cells: HEK-293 (ATCC CRL-1573), transient
Settings: 0.3 nmol/L [3H]PGE2, rat EP4 cell membrane fraction, room temperature 1 hour; read-out: Ki value with respect to the rat EP4 receptor
Procedure: Test Example 1: Evaluation Test of Rat EP4 Receptor Affinity
Construction of Rat EP4 Receptor Expressing Vector:
A rat EP4 receptor gene (GenBank accession No.: NM_032076.1) was transfected into an expression vector pcDNA3.1-V5-His-TOPO (Invitrogen Inc.).
Transient Expression of Rat EP4 Receptor:
The expression vector of a rat EP4 receptor was transfected into an HEK-293 cell (ATCC No.: CRL-1573). The transfection was carried out according to an appended instruction, using Lipofectoamine (registered trademark) 2000 reagent (Invitrogen Inc.). After the transfection, the cells were cultured in an α-MEM culture medium for 20 to 24 hours.
Preparation of Membrane Fraction:
The culture medium was removed by aspiration, 10 mL of cooled phosphate buffered saline (PBS) was added thereto per 15 cm dish, and the cells were scraped using a cell scraper (Sumitomo Bakelite). […]
[^3H]PGE2 and a cell membrane fraction were diluted with an assay buffer (50 mmol/L HEPES-NaOH, 10 mmol/L MgCl2, pH 7.5), and the test compound and unlabeled PGE2 (Cayman) were diluted with DMSO and the assay buffer. […] The radioactivity was measured using a TopCount (Perkin Elmer). […] The specific binding amount was determined by subtracting the non-specific binding amount from the total binding amount. The Ki value was calculated according to a standard method.

Chain of rat EP4 receptor (P43114 whole entry): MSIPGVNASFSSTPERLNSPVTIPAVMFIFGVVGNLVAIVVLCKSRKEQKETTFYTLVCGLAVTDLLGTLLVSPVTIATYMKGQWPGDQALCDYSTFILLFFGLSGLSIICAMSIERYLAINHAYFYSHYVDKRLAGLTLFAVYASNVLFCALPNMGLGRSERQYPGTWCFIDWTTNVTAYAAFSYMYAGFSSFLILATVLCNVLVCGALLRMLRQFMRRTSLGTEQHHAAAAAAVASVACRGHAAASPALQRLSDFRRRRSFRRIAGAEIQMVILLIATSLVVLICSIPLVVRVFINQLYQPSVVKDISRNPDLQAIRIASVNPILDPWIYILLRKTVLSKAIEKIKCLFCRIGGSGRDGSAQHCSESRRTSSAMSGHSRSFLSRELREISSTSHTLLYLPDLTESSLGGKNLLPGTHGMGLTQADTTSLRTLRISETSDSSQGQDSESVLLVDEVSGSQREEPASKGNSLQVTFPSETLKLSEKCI

Ki: 140 nM
Compound: Cc1cc(C(=O)N[C@@H](C)c2ccc(C(=O)O)cc2)n(Cc2ccc(Cl)cc2)n1 [Example 205 in Patent Document 1, reference compound]
